Assay [1] has as its system Stat3. Description: Stat3 DNA binding assay (EMSA) with HeLa nuclear extracts. In kind it is biochemical. The conditions noted are these: HeLa nuclear extract, FIG. 7A/7B. On the procedure:
Electrophoretic mobility shift assay (EMSA) was performed as described by the manufacturer (Li-Cor Biosciences, Lincoln, Nebr.). Briefly, nuclear extracts were made from HeLa cells using the NucBuster Protein Extraction Kit as described by the manufacturer (EMD Biosciences, San Diego, Calif.). 5 μg of nuclear extract was pre-incubated with the indicated dose of indicated compound for 30 minutes prior to a 15-minute incubation with the IR700-labeled consensus Stat3 oligonucleotide. Samples were then electrophoresed on a polyacrylamide gel and directly scanned using the Odyssey infrared imaging system (Li-Cor Biosciences). For the enzyme-linked immunosorbent assay (ELISA), 5 μg of nuclear extract was preincubated with indicated concentration of indicated compound for 30 minutes prior to the addition of biotinylated oligo (5′-Biotin-[…]-3′, SEQ ID NO. 1). Stat3-DNA complexes were then captured on streptavidin coated 96 well plates (Pierce, Rockford, Ill.). Bound complexes were then incubated with Stat3 polyclonal antibody (Santa Cruz Biotechnology, Santa Cruz, Calif.) followed by anti-rabbit HRP conjugated secondary antibody (GE Healthcare, Pittsburgh, Pa.). Bound antibody was then visualized by addition of TMB substrate (Pierce) and absorbance measured at 450 nm,
Nuclear extracts from HeLa cells, which contain constitutively activated Stat3 as detected by phoshporylation at the tyrosine 705 residue, were used to perform Stat3 EMSAs to monitor Stat3 DNA binding activity. Nuclear extracts were incubated with indicated compound prior to incubation with IR700-labeled Stat3 consensus oligonucleotide. Binding of Stat3 to the oligonucleotide was monitored by gel electrophoresis and detection using a LiCor Odyssey infrared scanner.
Background: A gel shift assay detects complexes by their altered migration in electrophoresis.

Assay [2] concerns Stat3. The assay can be described thus: Stat3-luciferase (Stat3-Luc) reporter assay, OSM-stimulated HeLa cells. In kind it is cell-based. The settings on record: FIG. 6. The protocol:
HeLa Cells were co-transfected with Stat3-luciferase (Stat3-Luc) reporter vector (Panomics, Fremont, Calif.) and Renilla luciferase (Promega, Madison, Wis.) using Lipofectamine 2000 as described by the manufacturer (Invitrogen). Following transfection, cells were maintained in medium containing 0.5% FBS for 24 hours. Cells were then treated with the indicated compound for 30 minutes prior to the addition of 25 ng/ml oncostatin M (OSM) (R&D Systems, Minneapolis, Minn.) to the medium. 6 hours following OSM addition, cells were harvested and levels of firefly and renilla luciferase were measured using the Dual-Glo Luciferase Assay System as described by the manufacturer (Promega).
Compounds were tested for their ability to inhibit Stat3 transcription activation activity in cells using a Stat3-luciferase (Stat3-luc) reporter construct. Cells transfected with Stat3-luc were cultured in reduced serum medium prior to addition of indicated compound for 30 minutes. Cells were then stimulated with 25 ng/ml oncostatin M (OSM) for 6 hours followed by detection of Stat3-luc reporter activity. […] AG490, a known inhibitor of the Jak-Stat pathway, was included as a positive control for Stat3 inhibition.
A general note: Reporter assays use an easily measured gene product as a stand-in for the process of interest.

The subject of the next assay is CD44^high FaDu cells. Description: MTT cell viability, CD44high FaDu CSCs. In kind it is cell-based. The settings on record: Homo sapiens, 48 h. The protocol: CD44^high cells were isolated by FACS according to the methods described in Ponti et al, with slight modification. Briefly, after trypsinization and recovery of cells for 30 minutes at 37° C. in growth media, cells were pelleted at 400×g and were resuspended in PBS with 2% FBS and 1 mM EDTA at 1×10^6 cells/mL. Cells were then incubated on ice with a 1:100 dilution of CD44-FITC (BD Biosicences, San Diego, Calif.) for 15 minutes. Alternatively, CD24-PE (BD Bioscences, San Diego, Calif.) (1:100) was utilized for negative selection. After washing three times, cells were resuspended at 2×10^6/mL and passed through a […] mesh before sorting.
(§1) For 3-(4,5 dimethylthiazol-2-yl)-2,5-diphenyltetrazolium (MTT) (Sigma-Aldrich, St. Louis, Mo.) analysis, cells were plated in 96 well plates at 10,000 cells per well. 24 hours after plating, compound was added to cells at indicated doses. 22 hours following compound addition, MTT was added to each well (0.5 mg/ml, final concentration) and plates were incubated for an additional 2 hours at 37° C. Medium was then aspirated and the formazan product was solubilized in 100 μl of isopropyl alcohol. The absorbance of each well was measured at 570 nm using a microplate reader.
In addition, we tested the activities of several other compounds against cancer stem cells. […]

The test system of a further assay is SW480 Hoechst SP cells. The assay can be described thus: MTT cell viability, SW480 Hoechst side population CSCs. The assay is classed as cell-based. The settings on record: for IC50: Homo sapiens, SW480 Hoechst SP, 48 h. The protocol: (§2) To identify and isolate side population (SP) and non-SP fractions, SW480 cells were removed from the culture dish with trypsin and EDTA, pelleted by centrifugation, washed with phosphate-buffered saline (PBS), and resuspended at 37° C. in Dulbecco's modified Eagle's medium (DMEM) containing 2% FBS and 1 mM HEPES. The cells were then labeled with Hoechst 33342 (Invitrogen) at a concentration of 5 μg/mL. The labeled cells were incubated for 120 minutes at 37° C., either alone or with 50 μM verapamil (Sigma-Aldrich, St. Louis). After staining, the cells were suspended in Hanks' balanced saline solution (HBSS; Invitrogen) containing 2% FBS and 1 mM HEPES, passed a through 40 μm mesh filter, and maintained at 4° C. until flow cytometry analysis. The Hoechst dye was excited at 350 nm, and its fluorescence was measured at two wavelengths using a 450 DF10 (450/20 nm band-pass filter) and a 675LP (675 nm long-pass edge filter) optical filter. The gating on forward and side scatter was not stringent, and only debris was excluded,
as §1
The IC50 of compound 401 against the Hoechst side population was accessed in MTT assays and was compared to the IC50 against the non-side population.
In addition, we tested the activities of several other compounds against cancer stem cells. Briefly, freshly isolated CSCs (SW480 Hoechst SP cells or CD44^high FaDu cells) were exposed to a dose range (30-0.117 μM) of compound for 48 h before examining cell viability by MTT assay. IC50s were estimated by plotting the percentage of surviving cells. As shown in Table 4 and Table 5, compounds of present invention can target cancer stem cells.

In a further assay the test system is FaDu cells. The assay can be described thus: MTT cell viability FaDu. The conditions noted are these: Homo sapiens, Head and Neck, MTT 24 hours. The assay is classed as cell-based. On the procedure:
as §1
(§3) Cells plated in 96 well plates and treated with indicated compounds were subjected to MTT analysis at 24 hours following compound treatment to determine cell viability.

Assay [3] concerns SW480 non-side population (NSP) cells. The assay can be described thus: MTT cell viability, SW480 non-side population. In kind it is cell-based. The settings on record: Homo sapiens, 48 h. On the procedure: as §2
For 3-(4,5 dimethylthiazol-2-yl)-2,5-diphenyltetrazolium (MTT) (Sigma-Aldrich, St. Louis, Mo.) analysis, cells were plated in 96 well plates at 10,000 cells per well. 24 hours after plating, compound was added to cells at indicated doses. […] The absorbance of each well was measured at 570 nm using a microplate reader. […]

The test system of another assay is CD44^low FaDu cells. Description: MTT cell viability, CD44low FaDu cells. The assay is classed as cell-based. The conditions noted are these: Homo sapiens, 48 h.
A further assay concerns Paca2 cells. The assay can be described thus: MTT cell viability Paca2. The assay is classed as cell-based. The conditions noted are these: PaCa-2; Paca2, Pancreas, MTT 24 hours. The protocol: as §1, §3
The next assay has as its system CD44^high CSCs. Description: Sphere assay with CD44high CSCs. In kind it is cell-based. The conditions noted are these: spheres grown 72 hours before challenge, FIGS. 10A and 10B. On the procedure: A reliable method of measuring the self-renewal capacity of cell population if the ability to be cultured as spheres in the absence of serum or attachment. CD44^high FaDu or Hoechst side population cancer stem cells were cultured in ultra low attachment plates in cancer stem cell media (DMEM/F12, B27 Neurobasal supplement, 20 ng/ml EGF, 10 ng/ml FGF, 4 μg/ml insulin, and 0.4% BSA) to allow spheres formation. Typically, sphere formation was evaluated by microscopy after 10-14 days in culture and spheres with >50 cells were scored.
One of the hallmarks cancer stem cells is their ability to self-renew. A reliable method of measuring the self-renewal capacity of cell populations is the ability to be cultured as spheres in the absence of serum or attachment. To compare the ability of compound 401 to other targeted and chemotherapeutic agents, FACS-isolated CD44^high CSCs were grown as spheres for 72 hours before being challenged with a panel of therapeutic agents. […] Tarceva, Sutent, and Gleevec were added at approximately three times their reported therapeutic concentrations.

In a further assay the test system is SW480 cells. The assay can be described thus: Hoechst side population staining of SW480 cells. The assay is classed as cell-based. The settings on record: treatment before Hoechst staining, FIG. 8A. The protocol: as §2
To confirm that this side population is enriched with cancer stem cells, a control set of SW480 cells were first treated with Verapamil, an inhibitor of ABC transporters, before stained with Hoechst.

Consider `CC(=O)c1cc2c(o1)C(=O)c1cc(Cl)ccc1C2=O` [Compound 416, 2-Acetyl-7-Chloro-naphtho[2,3-b]furan-4,9-dione], for which the “inhibition of Stat3 DNA binding activity” value with Stat3 [1] is “can inhibit Stat3's DNA binding activity”.

Turning to `CC(=O)c1cc2c(o1)C(=O)c1cc(F)ccc1C2=O` [Compound 418, 2-Acetyl-7-Fluoro-naphtho[2,3-b]furan-4,9-dione], in the assay on Stat3 [1], the “inhibition of Stat3 DNA binding activity” value is recorded as “can inhibit Stat3's DNA binding activity”.

For `O=C(c1ccccc1)c1cc2cc3ccccc3cc2s1` [Compound 1001, reference compound], the “inhibition of OSM-stimulated Stat3 reporter activity” value with Stat3 [2] is “did not inhibit OSM-stimulated Stat3 reporter activity even at a much higher concentration”.

With `C=C(OP(=O)(O)O)C1=CC2C(=O)c3ccccc3C(=O)C2O1` (stereo not drawn) [Compound 4011, phosphoric acid mono-[1-(4,9-dioxo-3a,4,9,9a-tetrahydro-naphtho[2,3-b]furan-2-yl)-vinyl] ester], the IC50 – broadly, the concentration needed to halve the response being measured – in the assay on CD44^high FaDu cells worked out at 270 nM; in the assay with SW480 Hoechst SP cells it was 380 nM; with FaDu cells it was 353 nM; in assay [3], 340 nM; in the assay on CD44^low FaDu cells, 420 nM; with Paca2 cells, 446 nM.

Take `C=C(OP(=O)(OC)OC)C1=CC2C(=O)c3ccccc3C(=O)C2O1` (stereo not drawn) [Compound 4012, phosphoric acid 1-(4,9-dioxo-3a,4,9,9a-tetrahydro-naphtho[2,3-b]furan-2-yl)-vinyl ester dimethyl ester]: the IC50 in the assay with CD44^high FaDu cells was 1050 nM; with SW480 Hoechst SP cells, 570 nM; in the assay on FaDu cells, 1040 nM; in assay [3], 810 nM; in the assay on CD44^low FaDu cells, 760 nM.

In the case of `COc1cccc2c1C(=O)c1c(O)c3c(c(O)c1C2=O)C[C@@](O)(C(=O)CO)C[C@@H]3O[C@H]1C[C@H](N)[C@H](O)[C@H](C)O1` [Doxorubicin, reference compound], the “sensitivity of side population compared to non-side population” value in the assay with SW480 Hoechst SP cells (FIG. 8B) is “the side population is much more resistant than the non-side population”. Moreover, the “prevention of sphere proliferation” value with CD44^high CSCs was “spheres were resistant”.

As to `COc1ccc(CCN(C)CCCC(C#N)(c2ccc(OC)c(OC)c2)C(C)C)cc1OC` (stereo not drawn) [Verapamil], the “effect on Hoechst side population” value with SW480 cells is “loss of the side population”.

Take `CC(=O)O[C@@]12CO[C@@H]1C[C@H](O)[C@@]1(C)C(=O)[C@H](O)C3=C(C)[C@@H](OC(=O)[C@H](O)[C@@H](NC(=O)OC(C)(C)C)c4ccccc4)C[C@@](O)([C@@H](OC(=O)c4ccccc4)[C@H]21)C3(C)C` [docetaxel]: the “prevention of sphere proliferation” value in the assay with CD44^high CSCs is listed as “spheres were resistant”.

Source of the values: patent US20210024482A1, “Novel Group of STAT3 Pathway Inhibitors and Cancer Stem Cell Pathway Inhibitors” (Sumitomo Dainippon Pharma Oncology, Inc., priority 2007, published 2021).
